# Tested on: panel of 55 breast cancer cell lines
# Experiment: Cell growth inhibition assay (Cell Titer Glo, 72 h, 9 doses; GI50, TGI, LC50)
# Format: cell-based, human
# Details: value is the negative log10 of mol/L
# [1] = cell line AU565, censored GI50 values
# [2] = cell line BT20, censored GI50 values
# [3] = cell line BT474, censored GI50 values
# [4] = cell line BT483, censored GI50 values
# [5] = cell line HCC38, censored GI50 values
# [6] = cell line HCC70, censored GI50 values
# [7] = cell line HCC202, censored GI50 values
# [8] = cell line HCC1143, censored GI50 values
# [9] = cell line HCC1187, censored GI50 values
# [10] = cell line HCC1395, censored GI50 values
# [11] = cell line HCC1419, censored GI50 values
# [12] = cell line HCC1428, censored GI50 values
# [13] = cell line HCC1500, censored GI50 values
# [14] = cell line HCC1937, censored GI50 values
# [15] = cell line HCC1954, censored GI50 values
# [16] = cell line HCC3153, censored GI50 values
# [17] = cell line LY2, censored GI50 values
# [18] = cell line MCF7, censored GI50 values
# [19] = cell line MDAMB134VI, censored GI50 values
# [20] = cell line MDAMB157, censored GI50 values
# [21] = cell line MDAMB175VII, censored GI50 values
# [22] = cell line MDAMB468, censored GI50 values
# [23] = cell line SUM52PE, censored GI50 values
# [24] = cell line SUM149PT, censored GI50 values
# [25] = cell line SUM159PT, censored GI50 values
# [26] = cell line SUM1315MO2, censored GI50 values
# [27] = cell line T47D, censored GI50 values
# [28] = cell line UACC812, censored GI50 values
# [29] = cell line UACC893, censored GI50 values
# [30] = cell line ZR75B, censored GI50 values
# [31] = cell line ZR751, censored GI50 values
smiles,measurement,setting,value
COc1ccc(C2=N[C@@H](c3ccc(Cl)cc3)[C@@H](c3ccc(Cl)cc3)N2C(=O)N2CCNC(=O)C2)c(OC(C)C)c1 [Nutlin 3a],GI50,cell line 600MPE,4.32
same,GI50,[1],4.79
same,GI50,cell line AU565,4.79
same,GI50,[2],4.47
same,GI50,cell line BT20,4.47
same,GI50,[3],4.39
same,GI50,cell line BT474,4.39
same,GI50,[4],5.19
same,GI50,cell line BT483,5.19
same,GI50,cell line BT549,4.35
same,GI50,cell line CAMA1,4.30
same,GI50,[5],4.66
same,GI50,cell line HCC38,4.66
same,GI50,[6],4.73
same,GI50,cell line HCC70,4.73
same,GI50,[7],5.02
same,GI50,cell line HCC202,5.02
same,GI50,[8],4.67
same,GI50,cell line HCC1143,4.67
same,GI50,[9],4.68
same,GI50,cell line HCC1187,4.68
same,GI50,[10],4.65
same,GI50,cell line HCC1395,4.65
same,GI50,[11],4.39
same,GI50,cell line HCC1419,4.39
same,GI50,[12],4.50
same,GI50,cell line HCC1428,4.50
same,GI50,[13],4.57
same,GI50,cell line HCC1500,4.57
same,GI50,cell line HCC1806,4.29
same,GI50,[14],4.63
same,GI50,cell line HCC1937,4.63
same,GI50,[15],4.76
same,GI50,cell line HCC1954,4.76
same,GI50,"cell line HCC2185, censored GI50 values",4.81
same,GI50,cell line HCC2185,4.81
same,GI50,[16],4.44
same,GI50,cell line HCC3153,4.44
same,GI50,[17],5.35
same,GI50,cell line LY2,5.35
same,GI50,[18],5.24
same,GI50,cell line MCF7,5.24
same,GI50,cell line MDAMB134V,4.76
same,GI50,[19],4.76
same,GI50,[20],4.45
same,GI50,cell line MDAMB157,4.45
same,GI50,cell line MDAMB175V,5.08
same,GI50,[21],5.08
same,GI50,cell line MDAMB231,4.18
same,GI50,cell line MDAMB361,4.23
same,GI50,"cell line MDAMB415, censored GI50 values",4.59
same,GI50,cell line MDAMB415,4.59
same,GI50,cell line MDAMB436,4.30
same,GI50,cell line MDAMB453,4.32
same,GI50,[22],4.44
same,GI50,cell line MDAMB468,4.44
same,GI50,cell line SKBR3,4.32
same,GI50,[23],4.73
same,GI50,cell line SUM52PE,4.73
same,GI50,[24],4.56
same,GI50,cell line SUM149PT,4.56
same,GI50,[25],4.78
same,GI50,cell line SUM159PT,4.78
same,GI50,"cell line SUM185PE, censored GI50 values",4.54
same,GI50,cell line SUM185PE,4.54
same,GI50,"cell line SUM225CWN, censored GI50 values",4.69
same,GI50,cell line SUM225CWN,4.69
same,GI50,[26],4.67
same,GI50,cell line SUM1315MO,4.67
same,GI50,[27],4.51
same,GI50,cell line T47D,4.51
same,GI50,[28],4.45
same,GI50,cell line UACC812,4.45
same,GI50,[29],4.69
same,GI50,cell line UACC893,4.69
same,GI50,[30],5.69
same,GI50,cell line ZR75B,5.69
same,GI50,[31],5.51
same,GI50,cell line ZR751,5.51
COc1ncc(-c2ccc3nccc(-c4ccnnc4)c3c2)cc1NS(=O)(=O)c1ccc(F)cc1F [GSK2126458A],GI50,"cell line 600MPE, censored GI50 values",8.22
same,GI50,cell line 600MPE,8.22
same,GI50,[1],8.10
same,GI50,cell line AU565,8.10
same,GI50,[2],7.80
same,GI50,cell line BT20,7.80
same,GI50,[3],8.36
same,GI50,[4],8.94
same,GI50,"cell line BT549, censored GI50 values",7.32
same,GI50,"cell line CAMA1, censored GI50 values",6.97
same,GI50,[5],7.62
same,GI50,[6],8.13
same,GI50,[7],9.03
same,GI50,[8],7.43
same,GI50,[9],8.30
same,GI50,[10],7.31
same,GI50,[11],8.75
same,GI50,[12],7.48
same,GI50,[13],7.11
same,GI50,"cell line HCC1806, censored GI50 values",7.54
same,GI50,[14],7.57
same,GI50,[15],7.97
same,GI50,[16],7.36
same,GI50,[17],7.93
same,GI50,[18],8.14
same,GI50,[19],7.95
same,GI50,[20],6.49
same,GI50,[21],8.29
same,GI50,"cell line MDAMB231, censored GI50 values",5.57
same,GI50,"cell line MDAMB361, censored GI50 values",7.46
same,GI50,"cell line MDAMB436, censored GI50 values",6.75
same,GI50,"cell line MDAMB453, censored GI50 values",8.28
same,GI50,[22],7.47
same,GI50,"cell line SKBR3, censored GI50 values",8.41
same,GI50,[23],8.46
same,GI50,[24],7.64
same,GI50,[25],7.52
same,GI50,[26],8.02
same,GI50,[27],8.45
same,GI50,[28],8.67
same,GI50,[29],8.22
same,GI50,[30],8.31
same,GI50,[31],8.07
